Results taken from patent US6673839B1, “Pharmaceutical compositions with antitumour activity” (Universita' Degli Studi di Catania, priority 1998, dated 2004).
Structures can show the parent of a compound that is named as a salt.

Columns and labels:
Yoshida tumour = assay: Chemopreventive effects on Yoshida tumour inoculation and thriving; type: in vivo, Sprague-Dowley rats
Procedure: In order to elucidate the actual chemoprevention antitumour Potentialities of L-aC, 125 Sprague-Dowley rats (4 months old, mean weight: 200 g), under standard feeding and temperature conditions (25° C.), were divided in 5 groups and treated as follows:
Group 1: 25 rats were intraperitoneally treated, on alternate days for 10 days, with 25 mg of L-aC diluted in 5 ml of saline solution. On day 10 they were inoculated with Yoshida tumour.
Group 2: 25 rats were intraperitoneally treated, on alternate days for 10 days, with 25 mg of L-aC diluted in 5 ml of saline solution. On day 10 they were inoculated with Yoshida tumour. Starting from day 11, they were further treated intraperitoneally, on alternate days, with 25 mg of L-aC diluted in 5 ml of saline solution, for a further 10 days.
Group 3: 25 previously untreated rats were inoculated, on day 10, with Yoshida tumour. Starting from day 14 they were intraperitoneally treated, on alternate days, with 25 mg of L-aC diluted in 5 ml of saline solution for 10 days.
Group 4: 25 previously untreated rats were inoculated on day 10 with Yoshida tumour. On day 18 to 24 they were intraperitoneally treated, on alternate days, with 25 mg of L-aC diluted in 5 ml of saline solution for 10 days.
Group 5: 25 previously untreated rats were inoculated on day 10 with Yoshida tumour. On day 18 to 24 they were subjected to emptying, on alternate days, of 5 ml of ascitic fluid which was substituted with 50 mg of L-aC diluted in 5 ml of saline solution.
The onset and evolution of the tumour were checked by daily observation and weighing.

[1] = system: Cells from Larynx Carcinoma Explant; assay: In vitro short-term chemosensitivity assay (MTT); type: cell-based, human
Procedure: The effects of L-aC on cells from 4 primitive epidermoid carcinomas of the larynx and 1 primitive undifferentiated carcinoma of the nasopharynx were tested.
Tissue fragments from the tumour mass were mechanically dissociated in Hank's solutions adding an antibiotic and an antifungal to obtain a cell monosuspension free of agglomerates. The resulting suspension was centrifuged at 1200 rpm for 5 minutes and the pellet was resuspended in MEM culture medium supplemented with 10% of patient serum, to obtain a concentration of 10^5 cells/ml. Subsequently, 180 μl of the resulting suspension were dispensed in microplate wells and incubated under 5% CO2 atmosphere at 37° C. for 3 days. After that, the antitumor medicaments were added in the amount of 20 μl for each well, at a concentration of 0.1×, 1× and 10× the maximum serum concentrations that can usually be reached in clinical practice. 24 h after the beginning of the exposure to the antitumour medicament, 100 μl of MTT were added, and after 4 h, a further 150 μl of dimethylsulfoxide were added.
The optical density was evaluated by a Uniscan microspectrophotometer with a […] wavelength filter. Cytotoxicity was evaluated as percentage of the optical density of the treated sample compared with the optical density of the control.
Bleomycin (BLEC), […] (CDDP), 5-fluoruracil (5-FU), vincristine (VCR), epidoxorubicin (Epi-Dx) and methotrexate (MTX) were tested for comparison purposes.
L-aC was tested at the following concentrations: 0.2-2-20 mg/ml.
In vitro short-term chemosensitivity assay (according to Hill and coll.)
(Cell Vitality Percentage After Exposure to the Antitumoral)—Raw Data
(Cells from Larynx Carcinoma Explant)

Q: Which results are given for CC(=O)OC(CC(=O)[O-])C[N+](C)(C)C [L-aC, L-acetylcarnitine hydrochloride]?
A: surviving animals (Yoshida tumour; Group 3, inoculated day 10, 25 mg L-aC i.p. alternate days from day 14 for 10 days, day 27): 16; surviving animals (Yoshida tumour; Group 3, inoculated day 10, 25 mg L-aC i.p. alternate days from day 14 for 10 days, day 30): 16; surviving animals (Yoshida tumour; Group 3, inoculated day 10, 25 mg L-aC i.p. alternate days from day 14 for 10 days, day 45): 16; ascites amount in survivors (Yoshida tumour; Group 3, day 27): markedly low or even no ascites amount; animals still alive (Yoshida tumour; Group 4 (25 mg L-aC i.p. alternate days day 18 to 24, inoculated day 10), day 27 of observation): 11/25; surviving animals (Yoshida tumour; Group 4, inoculated day 10, 25 mg L-aC i.p. alternate days day 18 to 24, day 01 of observation): 25; surviving animals (Yoshida tumour; Group 4, inoculated day 10, 25 mg L-aC i.p. alternate days day 18 to 24, day 03): 25; surviving animals (Yoshida tumour; Group 4, inoculated day 10, 25 mg L-aC i.p. alternate days day 18 to 24, day 05): 25; surviving animals (Yoshida tumour; Group 4, inoculated day 10, 25 mg L-aC i.p. alternate days day 18 to 24, day 07): 25; surviving animals (Yoshida tumour; Group 4, inoculated day 10, 25 mg L-aC i.p. alternate days day 18 to 24, day 09): 25; surviving animals (Yoshida tumour; Group 4, inoculated day 10, 25 mg L-aC i.p. alternate days day 18 to 24, day 10): 25; surviving animals (Yoshida tumour; Group 4, inoculated day 10, 25 mg L-aC i.p. alternate days day 18 to 24, day 11): 25; surviving animals (Yoshida tumour; Group 4, inoculated day 10, 25 mg L-aC i.p. alternate days day 18 to 24, day 14): 25; surviving animals (Yoshida tumour; Group 4, inoculated day 10, 25 mg L-aC i.p. alternate days day 18 to 24, day 18): 25; surviving animals (Yoshida tumour; Group 4, inoculated day 10, 25 mg L-aC i.p. alternate days day 18 to 24, day 21): 15; surviving animals (Yoshida tumour; Group 4, inoculated day 10, 25 mg L-aC i.p. alternate days day 18 to 24, day 24): 13; surviving animals (Yoshida tumour; Group 4, inoculated day 10, 25 mg L-aC i.p. alternate days day 18 to 24, day 27): 11; surviving animals (Yoshida tumour; Group 4, inoculated day 10, 25 mg L-aC i.p. alternate days day 18 to 24, day 30): 11; surviving animals (Yoshida tumour; Group 4, inoculated day 10, 25 mg L-aC i.p. alternate days day 18 to 24, day 45): 11; ascites amount in survivors (Yoshida tumour; Group 4, day 27): markedly low or even no ascites amount; day of observation by which all animals died (Yoshida tumour; Group 5 (50 mg L-aC replacing 5 ml ascitic fluid, alternate days day 18 to 24)): ≤ 26 days; surviving animals (Yoshida tumour; Group 5, inoculated day 10, 50 mg L-aC replacing 5 ml ascitic fluid alternate days day 18 to 24, day 01 of observation): 25; surviving animals (Yoshida tumour; Group 5, inoculated day 10, 50 mg L-aC replacing 5 ml ascitic fluid alternate days day 18 to 24, day 03): 25; surviving animals (Yoshida tumour; Group 5, inoculated day 10, 50 mg L-aC replacing 5 ml ascitic fluid alternate days day 18 to 24, day 05): 25; surviving animals (Yoshida tumour; Group 5, inoculated day 10, 50 mg L-aC replacing 5 ml ascitic fluid alternate days day 18 to 24, day 07): 25; surviving animals (Yoshida tumour; Group 5, inoculated day 10, 50 mg L-aC replacing 5 ml ascitic fluid alternate days day 18 to 24, day 09): 25; surviving animals (Yoshida tumour; Group 5, inoculated day 10, 50 mg L-aC replacing 5 ml ascitic fluid alternate days day 18 to 24, day 10): 25; surviving animals (Yoshida tumour; Group 5, inoculated day 10, 50 mg L-aC replacing 5 ml ascitic fluid alternate days day 18 to 24, day 11): 25; surviving animals (Yoshida tumour; Group 5, inoculated day 10, 50 mg L-aC replacing 5 ml ascitic fluid alternate days day 18 to 24, day 14): 25; surviving animals (Yoshida tumour; Group 5, inoculated day 10, 50 mg L-aC replacing 5 ml ascitic fluid alternate days day 18 to 24, day 18): 25; surviving animals (Yoshida tumour; Group 5, inoculated day 10, 50 mg L-aC replacing 5 ml ascitic fluid alternate days day 18 to 24, day 21): 8; surviving animals (Yoshida tumour; Group 5, inoculated day 10, 50 mg L-aC replacing 5 ml ascitic fluid alternate days day 18 to 24, day 24): 3; surviving animals (Yoshida tumour; Group 5, inoculated day 10, 50 mg L-aC replacing 5 ml ascitic fluid alternate days day 18 to 24, day 27): 0; surviving animals (Yoshida tumour; Group 5, inoculated day 10, 50 mg L-aC replacing 5 ml ascitic fluid alternate days day 18 to 24, day 30): 0; surviving animals (Yoshida tumour; Group 5, inoculated day 10, 50 mg L-aC replacing 5 ml ascitic fluid alternate days day 18 to 24, day 45): 0; general condition of surviving animals (Yoshida tumour; day 45 of observation): good health; deaths during further observation (Yoshida tumour; survivors, further 6 weeks): no deaths occurred; Cell Vitality Percentage After Exposure ([1]; Table 2 explant, 0.1x): 62%; Cell Vitality Percentage After Exposure ([1]; Table 2 explant, 1x): 32%; Cell Vitality Percentage After Exposure ([1]; Table 2 explant, 10x): 15%; Cell Vitality Percentage After Exposure ([1]; Table 3 explant, 0.1x): 42%; Cell Vitality Percentage After Exposure ([1]; Table 3 explant, 1x): 24%; Cell Vitality Percentage After Exposure ([1]; Table 3 explant, 10x): 7.2%; Cell Vitality Percentage After Exposure ([1]; Table 4 explant, 0.1x): 3.8%; Cell Vitality Percentage After Exposure ([1]; Table 4 explant, 1x): 1.5%; Cell Vitality Percentage After Exposure ([1]; Table 4 explant, 10x): 1.4%; Cell Vitality Percentage After Exposure ([1]; Table 5 explant, 0.1x): 63%; Cell Vitality Percentage After Exposure ([1]; Table 5 explant, 1x): 37%; Cell Vitality Percentage After Exposure ([1]; Table 5 explant, 10x): 32%
